Reference: article PMC7497403, “Development of Potent PfCLK3 Inhibitors Based on TCMDC-135051 as a New Class of Antimalarials” (Journal of Medicinal Chemistry, 2020)

Tests used:
Assay in all cases: Kinase screen
Assay type in all cases: biochemical
[1] = biological target: MPSK1 (Homo sapiens, UniProt O75716)
From the text: (§1) With verapamil used as a positive control.
(§2) V. Distribution coefficient (LogD7.4)

[2] = biological target: MKK1 (Homo sapiens, UniProt Q02750)
From the text: as §1, §2

[3] = biological target: PAK6 (Homo sapiens, UniProt Q9NQU5)
From the text: as §1, §2

[4] = biological target: TLK1 (Homo sapiens, UniProt Q9UKI8)
From the text: as §1, §2

[5] = biological target: PLK1 (Homo sapiens, UniProt P53350)
From the text: as §1, §2

[6] = biological target: CDK2-Cyclin A (Homo sapiens, UniProt P24941)
From the text: as §1, §2

[7] = biological target: JAK3 (Homo sapiens, UniProt P52333)
From the text: as §1, §2

[8] = biological target: JNK3 (Homo sapiens, UniProt P53779)
From the text: as §1, §2

[9] = biological target: TGFBR1 (Homo sapiens, UniProt P36897)
Sequence of TGFBR1 (P36897 34-503): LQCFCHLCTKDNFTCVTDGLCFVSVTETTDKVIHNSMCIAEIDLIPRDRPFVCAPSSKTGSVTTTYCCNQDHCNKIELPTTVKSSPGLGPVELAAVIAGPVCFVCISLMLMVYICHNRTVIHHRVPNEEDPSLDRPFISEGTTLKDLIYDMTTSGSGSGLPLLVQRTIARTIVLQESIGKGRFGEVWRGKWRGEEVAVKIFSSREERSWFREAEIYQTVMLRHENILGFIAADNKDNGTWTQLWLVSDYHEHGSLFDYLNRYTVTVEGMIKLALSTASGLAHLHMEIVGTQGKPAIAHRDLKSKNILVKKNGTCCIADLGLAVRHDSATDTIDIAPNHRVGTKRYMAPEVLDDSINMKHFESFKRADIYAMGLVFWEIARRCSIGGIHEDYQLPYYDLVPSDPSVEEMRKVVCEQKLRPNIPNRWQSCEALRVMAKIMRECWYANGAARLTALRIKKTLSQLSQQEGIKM
From the text: as §1, §2

[10] = biological target: HER4 (Homo sapiens, UniProt Q15303)
From the text: as §1, §2

[11] = biological target: SGK1 (Homo sapiens, UniProt O00141)
Sequence of SGK1 (O00141 whole entry): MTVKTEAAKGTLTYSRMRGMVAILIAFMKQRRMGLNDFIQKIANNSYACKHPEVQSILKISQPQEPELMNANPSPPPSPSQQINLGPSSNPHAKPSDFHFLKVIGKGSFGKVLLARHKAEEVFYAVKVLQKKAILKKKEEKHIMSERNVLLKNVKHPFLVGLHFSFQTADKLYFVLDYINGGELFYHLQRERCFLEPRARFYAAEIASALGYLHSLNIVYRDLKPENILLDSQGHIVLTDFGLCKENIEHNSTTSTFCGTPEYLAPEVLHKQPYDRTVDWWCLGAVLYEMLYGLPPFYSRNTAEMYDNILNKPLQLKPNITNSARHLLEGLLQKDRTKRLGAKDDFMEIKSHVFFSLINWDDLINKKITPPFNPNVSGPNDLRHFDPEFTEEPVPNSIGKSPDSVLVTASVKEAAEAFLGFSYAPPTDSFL
From the text: as §1, §2

[12] = biological target: DAPK1 (Homo sapiens, UniProt P53355)
From the text: as §1, §2

[13] = biological target: PDGFRA (Homo sapiens, UniProt P16234)
From the text: as §1, §2

[14] = biological target: GCK (Homo sapiens, UniProt Q12851)
From the text: as §1, §2

[15] = biological target: TAO1 (Homo sapiens, UniProt Q7L7X3)
From the text: as §1, §2

[16] = biological target: SRPK1 (Homo sapiens, UniProt Q96SB4)
From the text: as §1, §2

[17] = biological target: ZAP70 (Homo sapiens, UniProt P43403)
From the text: as §1, §2

[18] = biological target: PAK2 (Homo sapiens, UniProt Q13177)
Sequence of PAK2 (Q13177 whole entry): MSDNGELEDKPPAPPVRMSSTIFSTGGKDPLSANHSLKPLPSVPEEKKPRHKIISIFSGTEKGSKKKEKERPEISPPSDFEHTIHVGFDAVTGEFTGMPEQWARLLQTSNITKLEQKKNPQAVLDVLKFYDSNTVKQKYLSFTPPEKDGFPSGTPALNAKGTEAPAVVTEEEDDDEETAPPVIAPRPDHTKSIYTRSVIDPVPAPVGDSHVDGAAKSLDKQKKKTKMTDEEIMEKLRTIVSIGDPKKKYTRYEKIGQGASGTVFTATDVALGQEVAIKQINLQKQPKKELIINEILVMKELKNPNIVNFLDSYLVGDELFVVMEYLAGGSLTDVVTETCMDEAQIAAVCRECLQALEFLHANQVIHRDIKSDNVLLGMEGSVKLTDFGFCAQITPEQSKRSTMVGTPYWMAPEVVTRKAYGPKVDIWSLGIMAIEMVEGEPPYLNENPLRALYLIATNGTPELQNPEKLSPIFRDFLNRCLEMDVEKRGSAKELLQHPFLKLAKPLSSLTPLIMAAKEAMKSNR
From the text: as §1, §2

[19] = biological target: MAPKAP-K3 (Homo sapiens, UniProt Q16644)
From the text: as §1, §2

[20] = biological target: TrkA (Homo sapiens, UniProt P04629)
Sequence of TrkA (P04629 33-796): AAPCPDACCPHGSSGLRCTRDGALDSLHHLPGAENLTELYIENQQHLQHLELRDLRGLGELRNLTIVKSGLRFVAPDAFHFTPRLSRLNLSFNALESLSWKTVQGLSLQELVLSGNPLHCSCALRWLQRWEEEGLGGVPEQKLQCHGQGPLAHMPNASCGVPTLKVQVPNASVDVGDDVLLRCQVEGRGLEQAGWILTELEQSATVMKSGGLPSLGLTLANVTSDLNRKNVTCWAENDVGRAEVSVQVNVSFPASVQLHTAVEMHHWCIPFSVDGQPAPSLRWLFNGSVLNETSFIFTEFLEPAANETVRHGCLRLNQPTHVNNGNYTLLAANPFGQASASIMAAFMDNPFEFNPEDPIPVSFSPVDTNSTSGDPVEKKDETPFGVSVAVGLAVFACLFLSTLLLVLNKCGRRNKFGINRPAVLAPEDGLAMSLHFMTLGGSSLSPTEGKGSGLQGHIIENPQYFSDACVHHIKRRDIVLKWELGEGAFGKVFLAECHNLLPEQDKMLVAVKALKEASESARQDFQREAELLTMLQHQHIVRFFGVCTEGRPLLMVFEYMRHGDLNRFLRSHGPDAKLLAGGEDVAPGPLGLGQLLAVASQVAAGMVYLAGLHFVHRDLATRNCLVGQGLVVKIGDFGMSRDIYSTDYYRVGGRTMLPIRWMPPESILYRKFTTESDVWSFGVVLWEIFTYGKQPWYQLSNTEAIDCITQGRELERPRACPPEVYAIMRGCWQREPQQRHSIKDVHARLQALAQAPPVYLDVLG
From the text: as §1, §2

[21] = biological target: PDK1 (Homo sapiens, UniProt O15530)
From the text: as §1, §2

[22] = biological target: Aurora B (Homo sapiens, UniProt Q96GD4)
From the text: as §1, §2

[23] = biological target: MLK3 (Homo sapiens, UniProt Q16584)
From the text: as §1, §2

[24] = biological target: p38a MAPK (Homo sapiens, UniProt Q16539)
From the text: as §1, §2

[25] = biological target: S6K1 (Homo sapiens, UniProt P23443)
From the text: as §1, §2

[26] = biological target: DDR2 (Homo sapiens, UniProt Q16832)
From the text: as §1, §2

[27] = biological target: JNK1 (Homo sapiens, UniProt P45983)
Sequence of JNK1 (P45983 whole entry): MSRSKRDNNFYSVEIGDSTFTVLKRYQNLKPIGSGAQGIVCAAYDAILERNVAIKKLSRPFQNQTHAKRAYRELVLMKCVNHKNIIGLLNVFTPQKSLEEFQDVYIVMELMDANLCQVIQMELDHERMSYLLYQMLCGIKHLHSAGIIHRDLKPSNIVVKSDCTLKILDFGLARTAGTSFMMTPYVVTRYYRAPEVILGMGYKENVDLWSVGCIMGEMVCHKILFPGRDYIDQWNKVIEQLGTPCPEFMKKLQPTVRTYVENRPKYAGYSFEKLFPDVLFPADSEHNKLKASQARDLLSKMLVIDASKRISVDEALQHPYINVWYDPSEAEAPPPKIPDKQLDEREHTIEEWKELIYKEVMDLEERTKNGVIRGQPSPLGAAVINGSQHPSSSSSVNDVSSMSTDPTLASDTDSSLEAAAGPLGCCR
From the text: as §1, §2

[28] = biological target: CAMK1 (Homo sapiens, UniProt Q14012)
From the text: as §1, §2

[29] = biological target: CAMKKb (Homo sapiens, UniProt Q96RR4)
From the text: as §1, §2

[30] = biological target: PAK4 (Homo sapiens, UniProt O96013)
Sequence of PAK4 (O96013 whole entry): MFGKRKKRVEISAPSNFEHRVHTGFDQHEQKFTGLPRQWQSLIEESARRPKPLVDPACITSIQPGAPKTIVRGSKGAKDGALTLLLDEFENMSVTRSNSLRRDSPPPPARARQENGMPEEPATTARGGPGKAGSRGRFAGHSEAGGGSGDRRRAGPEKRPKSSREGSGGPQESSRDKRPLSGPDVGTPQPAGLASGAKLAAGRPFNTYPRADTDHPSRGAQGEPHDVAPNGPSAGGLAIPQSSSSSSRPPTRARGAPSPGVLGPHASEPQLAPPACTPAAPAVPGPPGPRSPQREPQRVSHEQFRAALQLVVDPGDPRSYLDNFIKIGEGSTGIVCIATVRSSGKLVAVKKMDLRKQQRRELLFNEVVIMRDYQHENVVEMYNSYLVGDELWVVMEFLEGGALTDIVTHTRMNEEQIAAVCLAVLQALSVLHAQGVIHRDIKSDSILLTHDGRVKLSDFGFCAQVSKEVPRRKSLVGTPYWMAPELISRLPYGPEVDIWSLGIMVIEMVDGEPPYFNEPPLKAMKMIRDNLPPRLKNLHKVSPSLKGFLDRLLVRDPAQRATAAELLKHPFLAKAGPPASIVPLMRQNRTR
From the text: as §1, §2

[31] = biological target: PKBb (Homo sapiens, UniProt P31751)
From the text: as §1, §2

[32] = biological target: TAK1 (Homo sapiens, UniProt O43318)
From the text: as §1, §2

[33] = biological target: SIK3 (Homo sapiens, UniProt Q9Y2K2)
From the text: as §1, §2

[34] = biological target: BRSK2 (Homo sapiens, UniProt Q8IWQ3)
From the text: as §1, §2

[35] = biological target: MARK2 (Homo sapiens, UniProt Q7KZI7)
From the text: as §1, §2

[36] = biological target: PRK2 (Homo sapiens, UniProt Q16513)
From the text: as §1, §2

[37] = biological target: MELK (Homo sapiens, UniProt Q14680)
From the text: as §1, §2

[38] = biological target: RIPK2 (Homo sapiens, UniProt O43353)
Sequence of RIPK2 (O43353 whole entry): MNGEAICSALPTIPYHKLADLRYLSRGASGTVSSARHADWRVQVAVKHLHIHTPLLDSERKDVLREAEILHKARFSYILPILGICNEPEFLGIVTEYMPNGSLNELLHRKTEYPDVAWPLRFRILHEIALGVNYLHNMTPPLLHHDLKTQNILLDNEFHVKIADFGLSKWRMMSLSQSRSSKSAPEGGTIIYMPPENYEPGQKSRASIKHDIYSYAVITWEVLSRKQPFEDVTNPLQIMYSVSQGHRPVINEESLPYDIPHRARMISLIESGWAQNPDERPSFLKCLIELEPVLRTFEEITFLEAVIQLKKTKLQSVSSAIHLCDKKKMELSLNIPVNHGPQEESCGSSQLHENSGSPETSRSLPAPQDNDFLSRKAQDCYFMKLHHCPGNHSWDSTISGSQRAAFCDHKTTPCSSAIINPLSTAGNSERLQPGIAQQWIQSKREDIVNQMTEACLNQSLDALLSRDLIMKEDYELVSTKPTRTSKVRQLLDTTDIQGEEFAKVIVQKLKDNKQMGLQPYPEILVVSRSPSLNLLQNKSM
From the text: as §1, §2

[39] = biological target: Lck (Homo sapiens, UniProt P06239)
From the text: as §1, §2

[40] = biological target: TBK1 (Homo sapiens, UniProt Q9UHD2)
From the text: as §1, §2

[41] = biological target: MEKK1 (Homo sapiens, UniProt Q13233)
From the text: as §1, §2

[42] = biological target: MAP4K5 (Homo sapiens, UniProt Q9Y4K4)
From the text: as §1, §2

[43] = biological target: YES1 (Homo sapiens, UniProt P07947)
Sequence of YES1 (P07947 whole entry): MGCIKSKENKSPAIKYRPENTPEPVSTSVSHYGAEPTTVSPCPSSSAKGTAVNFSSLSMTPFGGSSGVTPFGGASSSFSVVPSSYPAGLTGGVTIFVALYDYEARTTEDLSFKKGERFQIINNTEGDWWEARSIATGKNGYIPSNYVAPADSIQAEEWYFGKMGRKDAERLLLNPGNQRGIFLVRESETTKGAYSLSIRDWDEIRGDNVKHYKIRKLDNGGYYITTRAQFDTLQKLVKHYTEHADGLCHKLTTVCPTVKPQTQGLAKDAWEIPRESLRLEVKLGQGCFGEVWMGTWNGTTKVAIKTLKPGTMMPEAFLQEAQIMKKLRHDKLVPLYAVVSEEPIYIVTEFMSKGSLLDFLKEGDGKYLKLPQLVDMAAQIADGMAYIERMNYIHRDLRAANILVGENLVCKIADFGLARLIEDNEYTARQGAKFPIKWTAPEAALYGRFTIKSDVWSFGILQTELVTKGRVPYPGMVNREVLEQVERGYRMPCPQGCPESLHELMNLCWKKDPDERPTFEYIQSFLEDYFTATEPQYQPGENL
From the text: as §1, §2

[44] = biological target: PKBa (Homo sapiens, UniProt P31749)
From the text: as §1, §2

[45] = biological target: BTK (Homo sapiens, UniProt Q06187)
From the text: as §1, §2

[46] = biological target: p38g MAPK (Homo sapiens, UniProt P53778)
Sequence of p38g MAPK (P53778 whole entry): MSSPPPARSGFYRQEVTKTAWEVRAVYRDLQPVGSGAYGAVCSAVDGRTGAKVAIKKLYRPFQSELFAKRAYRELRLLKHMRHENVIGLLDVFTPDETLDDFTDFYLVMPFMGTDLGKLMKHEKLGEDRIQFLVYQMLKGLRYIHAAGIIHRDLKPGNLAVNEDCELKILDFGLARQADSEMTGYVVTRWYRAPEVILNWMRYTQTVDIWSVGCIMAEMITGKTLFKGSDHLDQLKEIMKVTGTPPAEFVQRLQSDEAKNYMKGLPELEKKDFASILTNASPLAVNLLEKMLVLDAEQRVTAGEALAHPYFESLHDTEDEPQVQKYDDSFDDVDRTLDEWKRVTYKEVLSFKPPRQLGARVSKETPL
From the text: as §1, §2

Sequence of MPSK1 (O75716 whole entry): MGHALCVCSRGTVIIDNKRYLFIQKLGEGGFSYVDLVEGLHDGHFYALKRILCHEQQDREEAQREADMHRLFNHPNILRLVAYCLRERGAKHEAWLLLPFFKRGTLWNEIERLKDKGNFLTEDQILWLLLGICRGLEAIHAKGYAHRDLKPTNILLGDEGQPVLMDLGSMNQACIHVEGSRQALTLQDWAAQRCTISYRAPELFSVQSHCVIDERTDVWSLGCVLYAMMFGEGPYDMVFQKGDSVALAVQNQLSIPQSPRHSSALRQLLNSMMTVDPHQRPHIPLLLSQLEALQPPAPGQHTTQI

Work on `CCN(CC)Cc1ccc(OC)c(-c2cc3c(-c4ccc(C(=O)O)c(C(C)C)c4)ccnc3[nH]2)c1` [analogue 1, 4-(2-(5-((Diethylamino)methyl)-2-methoxyphenyl)-1H-pyrrolo[2,3-b]pyridin-4-yl)-2-isopropylbenzoic Acid] yielded an activity at 1 µM [1] of 104%, an activity at 1 µM [2] of 79% and an activity at 1 µM [3] of 92%. It also gave an activity at 1 µM [4] of 106%, an activity at 1 µM [5] of 104% and an activity at 1 µM [6] of 12%. The activity at 1 µM [7] was 22%, the activity at 1 µM [8] was 52% and the activity at 1 µM [9] was 6%. The activity at 1 µM [10] was 112%, the activity at 1 µM [11] was 38% and the activity at 1 µM [12] was 105%. For the same compound, the activity at 1 µM [13] was 133%, the activity at 1 µM [14] was 31% and the activity at 1 µM [15] was 39%. It also gave an activity at 1 µM [16] of 92%, an activity at 1 µM [17] of 59% and an activity at 1 µM [18] of 84%. For the same compound, the activity at 1 µM [19] was 110%, the activity at 1 µM [20] was 87% and the activity at 1 µM [21] was 111%. For the same compound, the activity at 1 µM [22] was 59%, the activity at 1 µM [23] was 107% and the activity at 1 µM [24] was 89%. It also gave an activity at 1 µM [25] of 87%, an activity at 1 µM [26] of 21% and an activity at 1 µM [27] of 85%. The activity at 1 µM [28] was 86%, the activity at 1 µM [29] was 2% and the activity at 1 µM [30] was 105%. It also gave an activity at 1 µM [31] of 96%, an activity at 1 µM [32] of 25% and an activity at 1 µM [33] of 71%. The activity at 1 µM [34] was 74%, the activity at 1 µM [35] was 34% and the activity at 1 µM [36] was 48%. The activity at 1 µM [37] was 85%, the activity at 1 µM [38] was 16% and the activity at 1 µM [39] was 39%. For the same compound, the activity at 1 µM [40] was 66%, the activity at 1 µM [41] was 112% and the activity at 1 µM [42] was 14%. It also gave an activity at 1 µM [43] of 67%, an activity at 1 µM [44] of 115% and an activity at 1 µM [45] of 119%. For the same compound, the activity at 1 µM [46] was 105%.
